# From patent publication US11214594B2, “Antimicrobial peptide having synergistic antibacterial effect with antibiotics on multidrug resistant bacteria, and use thereof” (priority 2016, dated 2022)
# Where a SMILES comes first, the peptide text is derived from it. [ ]: non-standard residue; d: D form.
# Tests used:
# E. coli [1] = assay: MIC of antibiotic during combined treatment with antimicrobial peptide; type: cell-based, Escherichia coli; conditions: E. coli
# Method in brief: (§1)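 Antibiotic diluted in MH medium, dispensed per well with peptide; setup repeated with roles reversed; MIC read per combination.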
# MDRAB 12035 = assay: MIC of antimicrobial peptide during combined treatment with antibiotic; type: cell-based, Acinetobacter baumannii
# Method in brief: (§2)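 Antibiotic MIC came from antibiotic dilutions added to bacteria (2×10^6 CFU/ml, MH medium) already combined with peptide serially diluted 2:1 from its own MIC. Swapping the roles of the two agents gave the peptide MIC.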
# A. baumannii [2] = assay: as above; type: cell-based, Acinetobacter baumannii
# Method in brief: as §2
# MDREC 1229 = assay: microbe, parasite or virus in culture; type: cell-based, Escherichia coli
# Method in brief: (§3)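 Broth microdilution in MH medium: bacterial strains diluted to 2×10^6 CFU were mixed with equal volumes of peptide serially diluted twofold in MH medium.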
# E. coli [3] = assay: microbe, parasite or virus in culture; type: cell-based, Escherichia coli; conditions: 16 h
# Method in brief: as §3
# S. aureus = assay: microbe, parasite or virus in culture; type: cell-based, Staphylococcus aureus
# Method in brief: as §3
# A. baumannii [4] = assay: MIC of antibiotic during combined treatment with antimicrobial peptide; type: cell-based, Acinetobacter baumannii; conditions: for Antibiotic MIC, Erythromycin / Antibiotic MIC, Linezolid / Antibiotic MIC, Vancomycin: A. baumannii
# Method in brief: as §1
# [5] = erythromycin 4 μg/ml (Conc./MIC 1/8)
# [6] = erythromycin 8 μg/ml (Conc./MIC 1/4)
# [7] = erythromycin 16 μg/ml (Conc./MIC 1/2)
# [8] = erythromycin 32 μg/ml (Conc./MIC 1)
# [9] = vancomycin 512 μg/ml (Conc./MIC 1/2)
# [10] = vancomycin 1024 μg/ml (Conc./MIC 1)
# [11] = combined with peptide at 1 μg/ml
# [12] = combined with peptide at 2 μg/ml
# [13] = combined with peptide at 4 μg/ml
# [14] = combined with peptide at 6 μg/ml
# [15] = combined with peptide at 8 μg/ml
# [16] = combined with peptide at 16 μg/ml
# [17] = combined with peptide at 32 μg/ml
# [18] = combined with peptide at 64 μg/ml
smiles,measurement,setting,value
"CC[C@H](C)[C@H](NC(=O)[C@H](CCCCN)NC(=O)[C@H](Cc1c[nH]c2ccccc12)NC(=O)[C@@H](N)CCCNC(=N)N)C(=O)N[C@@H](Cc1ccccc1)C(=O)N[C@@H](CCCCN)C(=O)N[C@@H](CCCCN)C(=O)N[C@H](C(=O)N[C@H](CC(C)C)C(=O)N[C@@H](CCCCN)C(=O)N[C@@H](CC(C)C)C(=O)N[C@@H](CC(C)C)C(=O)N[C@@H](Cc1c[nH]cn1)C(=O)N[C@@H](CCC(=O)O)C(=O)N[C@@H](Cc1ccccc1)C(=O)N[C@@H](CCCCN)C(=O)N[C@@H](CCCCN)C(=O)N[C@@H](Cc1ccccc1)C(N)=O)[C@@H](C)CC [PapMA-23, RWK IFK KIl KLL HEF KKF-NH2] (H-RWKIFKKI[dL]KLLHEFKKF-NH2; N-terminus assumed)","Antibiotic MIC, Vancomycin",E. coli [1]; vancomycin combined with peptide at 2 μg/ml,>128 µg/mL
same,"Antibiotic MIC, Vancomycin",E. coli [1]; vancomycin combined with peptide at 4 μg/ml,>128 µg/mL
same,"Antibiotic MIC, Vancomycin",E. coli [1]; vancomycin combined with peptide at 6 μg/ml,64 µg/mL
same,"Antibiotic MIC, Vancomycin",E. coli [1]; vancomycin combined with peptide at 8 μg/ml,16 µg/mL
same,"Antibiotic MIC, Vancomycin",E. coli [1]; vancomycin combined with peptide at 16 μg/ml,8 µg/mL
same,"Antibiotic MIC, Vancomycin",E. coli [1]; vancomycin combined with peptide at 32 μg/ml,0 µg/mL
same,"Antibiotic MIC, Vancomycin",E. coli [1]; vancomycin combined with peptide at 64 μg/ml,0 µg/mL
same,Peptide MIC during treatment with erythromycin,MDRAB 12035; [5],8 µg/mL
same,Peptide MIC during treatment with erythromycin,MDRAB 12035; [6],8 µg/mL
same,Peptide MIC during treatment with erythromycin,MDRAB 12035; [7],4 µg/mL
same,Peptide MIC during treatment with erythromycin,MDRAB 12035; [8],0 µg/mL
same,Peptide MIC during treatment with linezolid,MDRAB 12035; linezolid 64 μg/ml (Conc./MIC 1/8),4 µg/mL
same,Peptide MIC during treatment with linezolid,MDRAB 12035; linezolid 512 μg/ml (Conc./MIC 1),0 µg/mL
same,Peptide MIC during treatment with linezolid,MDRAB 12035; linezolid […] (Conc./MIC 1/2),1 µg/mL
same,Peptide MIC during treatment with linezolid,MDRAB 12035; linezolid […] (Conc./MIC 1/4),4 µg/mL
same,Peptide MIC during treatment with vancomycin,MDRAB 12035; [9],2 µg/mL
same,Peptide MIC during treatment with vancomycin,MDRAB 12035; [10],1 µg/mL
same,Peptide MIC during treatment with vancomycin,MDRAB 12035; vancomycin […] (Conc./MIC 1/4),4 µg/mL
same,Peptide MIC during treatment with vancomycin,MDRAB 12035; vancomycin […] (Conc./MIC 1/8),4 µg/mL
same,Peptide MIC during treatment with erythromycin,A. baumannii [2]; [5],8 µg/mL
same,Peptide MIC during treatment with erythromycin,A. baumannii [2]; [6],4 µg/mL
same,Peptide MIC during treatment with erythromycin,A. baumannii [2]; [7],4 µg/mL
same,Peptide MIC during treatment with erythromycin,A. baumannii [2]; [8],0 µg/mL
same,Peptide MIC during treatment with linezolid,A. baumannii [2]; linezolid 32 μg/ml (Conc./MIC 1/8),8 µg/mL
same,Peptide MIC during treatment with linezolid,A. baumannii [2]; linezolid 64 μg/ml (Conc./MIC 1/4),4 µg/mL
same,Peptide MIC during treatment with linezolid,A. baumannii [2]; linezolid […] (Conc./MIC 1),0 µg/mL
same,Peptide MIC during treatment with linezolid,A. baumannii [2]; linezolid […] (Conc./MIC 1/2),1 µg/mL
same,Peptide MIC during treatment with vancomycin,A. baumannii [2]; [9],0.25 µg/mL
same,Peptide MIC during treatment with vancomycin,A. baumannii [2]; [10],0 µg/mL
same,Peptide MIC during treatment with vancomycin,A. baumannii [2]; vancomycin […] (Conc./MIC 1/4),0.5 µg/mL
same,Peptide MIC during treatment with vancomycin,A. baumannii [2]; vancomycin […] (Conc./MIC 1/8),4 µg/mL
same,Minimal inhibitory concentration MIC,MDREC 1229,32 µg/mL
same,"Peptide MIC, peptide alone",MDREC 1229,32 µg/mL
same,Minimal inhibitory concentration MIC,E. coli [3],32 µg/mL
same,Minimal inhibitory concentration MIC,S. aureus,>128 µg/mL
same,Synergistic effect of antibacterial activity with existing antibiotics compared with PapMA-1,A. baumannii [4]; A. baumannii and MDRAB 12035,level similar to that of PapMA-1 peptide
same,"Antibiotic MIC, Erythromycin",A. baumannii [4]; [11],32 µg/mL
same,"Antibiotic MIC, Linezolid",A. baumannii [4]; [11],>128 µg/mL
same,"Antibiotic MIC, Vancomycin",A. baumannii [4]; [11],>128 µg/mL
same,"Antibiotic MIC, Erythromycin",A. baumannii [4]; [12],32 µg/mL
same,"Antibiotic MIC, Linezolid",A. baumannii [4]; [12],>128 µg/mL
same,"Antibiotic MIC, Vancomycin",A. baumannii [4]; [12],>128 µg/mL
same,"Antibiotic MIC, Erythromycin",A. baumannii [4]; [13],8 µg/mL
same,"Antibiotic MIC, Linezolid",A. baumannii [4]; [13],64 µg/mL
same,"Antibiotic MIC, Vancomycin",A. baumannii [4]; [13],64 µg/mL
same,"Antibiotic MIC, Erythromycin",A. baumannii [4]; [14],4 µg/mL
same,"Antibiotic MIC, Linezolid",A. baumannii [4]; [14],16 µg/mL
same,"Antibiotic MIC, Vancomycin",A. baumannii [4]; [14],32 µg/mL
same,"Antibiotic MIC, Erythromycin",A. baumannii [4]; [15],0.5 µg/mL
same,"Antibiotic MIC, Linezolid",A. baumannii [4]; [15],4 µg/mL
same,"Antibiotic MIC, Vancomycin",A. baumannii [4]; [15],8 µg/mL
same,"Antibiotic MIC, Erythromycin",A. baumannii [4]; [16],0.25 µg/mL
same,"Antibiotic MIC, Linezolid",A. baumannii [4]; [16],2 µg/mL
same,"Antibiotic MIC, Vancomycin",A. baumannii [4]; [16],4 µg/mL
same,"Antibiotic MIC, Erythromycin",A. baumannii [4]; [17],0 µg/mL
same,"Antibiotic MIC, Linezolid",A. baumannii [4]; [17],0 µg/mL
same,"Antibiotic MIC, Vancomycin",A. baumannii [4]; [17],0 µg/mL
same,"Antibiotic MIC, Erythromycin",A. baumannii [4]; [18],0 µg/mL
same,"Antibiotic MIC, Linezolid",A. baumannii [4]; [18],0 µg/mL
same,"Antibiotic MIC, Vancomycin",A. baumannii [4]; [18],0 µg/mL
